Assay [1] can be described thus: Displacement of [3H]AMPA from AMPA receptor in rat cortical membrane. It counts as cell membranes. In general terms: Loss of bound radioactivity is the signal in a displacement assay; it reports binding, not function.
The target of assay [2] is Glutamate NMDA receptor (Rattus norvegicus) (UniProt P35439+Q00959+Q00960+Q00961+Q62645+Q8VHN2+Q9R1M7). The assay is described as follows: Displacement of [3H]glycine from NMDA receptor in rat cortical membrane at 100 uM. It counts as cell membranes.
Assay [3] is filed under the species Rattus norvegicus. Nature of the assay: Ratio of Ki for rat NMDA receptor to Ki for rat AMPA receptor.
The species named for assay [4] is Rattus norvegicus. The assay is described as follows: Displacement of [3H]kainate from KA receptor in rat cortical membrane at 100 uM. It is filed as cell membranes.
For assay [5], the species on record is Rattus norvegicus. Nature of the assay: Displacement of [3H]AMPA from AMPA receptor in rat cortical membrane at 100 uM. It counts as cell membranes.
Another assay addresses Glutamate NMDA receptor. The assay is described as follows: Displacement of [3H]glycine from NMDA receptor in rat cortical membrane. It counts as cell membranes.
Assay [6] in a line: Displacement of [3H]kainate from KA receptor in rat cortical membrane. It counts as cell membranes.
Assay [7] deals with AMPA receptor (Mus musculus). The assay is described as follows: Antagonist activity at AMPA receptor assessed as inhibition of AMPA-induced depolarization in mouse cortical wedge preparation by electrophysiology assay.
The target in assay [8] is Glutamate NMDA receptor (Mus musculus). The assay is described as follows: Antagonist activity at NMDA receptor assessed as inhibition of NMDA-induced depolarization in mouse cortical wedge preparation by electrophysiology assay.

The Ki is the equilibrium dissociation constant of an inhibitor or competing ligand from its target. Lower therefore signals a stronger hold on the target. Molecule `CCOC(=O)c1nn2c(=O)[nH]c3cc(Cl)c(-n4ccc(C=O)c4)cc3c2c1C(=O)OCC` gave a Ki in [1] of 15.7 µM. The Activity was 20% in [2] and 17% in the assay listed under Rattus norvegicus [4]. Also, the Ratio Ki in the assay filed under Rattus norvegicus [3] was > 6.

As for `CCOC(=O)c1nn2c(=O)[nH]c3cc(Cl)c(NC(=O)NCc4ccccc4)cc3c2c1C(=O)OCC`, the Activity is 44% in the assay listed under Rattus norvegicus [5], 19% in assay [2] and 0% in the assay listed under Rattus norvegicus [4].

One may read the IC50 as the midpoint of a concentration-inhibition curve. As for `O=C(Nc1ccccc1)Nc1cc2c(cc1Cl)[nH]c(=O)n1nc(C(=O)O)c(C(=O)O)c21`, the Ki in [1] is 0.14 µM; on Glutamate NMDA receptor, 11.7 µM. In the assay filed under Rattus norvegicus [3], the Ratio Ki stood at 83.5. For the same molecule, in [6], the IC50 is 11 µM.

Regarding `O=C(O)c1nn2c(=O)[nH]c3cc(Cl)c([N+](=O)[O-])cc3c2c1C(=O)O`, the values for the Ki (in [1]; at Glutamate NMDA receptor) were 0.59 µM and 1.25 µM, respectively. In addition, the Ratio Ki in the assay listed under Rattus norvegicus [3] was 2. This molecule gave an IC50 in [6] of 11.7 µM.

With `CCOC(=O)c1c(C(=O)O)nn2c(=O)[nH]c3cc(Cl)c([N+](=O)[O-])cc3c12`, the values for the Ki (in assay [1]; at Glutamate NMDA receptor) were 0.94 µM and 4.7 µM, respectively. The Ratio Ki in the assay listed under Rattus norvegicus [3] was found to be 5. In [6], this molecule registered an IC50 of 60 µM.

For `CCOC(=O)CCCNC(=O)Nc1cc2c(cc1Cl)[nH]c(=O)n1nc(C(=O)OCC)c(C(=O)OCC)c21`, the Ki amounted to 3.5 µM in assay [1] and 99 µM on Glutamate NMDA receptor. Further, in the assay listed under Rattus norvegicus [3], the Ratio Ki stood at 28. In the assay filed under Rattus norvegicus [4], this molecule had an Activity of 24%.

Turning to `CCOC(=O)c1nn2c(=O)[nH]c3cc(Cl)c(NC(=O)Nc4ccccc4)cc3c2c1C(=O)OCC`, the Activity in the assay listed under Rattus norvegicus [5] was determined as 20%; in assay [2], 11%; in the assay filed under Rattus norvegicus [4], 0%.

Take `CCOC(=O)c1nn2c(=O)[nH]c3cc(Cl)c([N+](=O)[O-])cc3c2c1[N+](=O)[O-]`: the Activity in the assay listed under Rattus norvegicus [5] is 45%; in the assay listed under Rattus norvegicus [4], 16%. This molecule yielded a Ki at Glutamate NMDA receptor of 36.2 µM. Further, the Ratio Ki in the assay filed under Rattus norvegicus [3] came to 0.4.

As for `O=C(O)CCNC(=O)Nc1cc2c(cc1Cl)[nH]c(=O)n1nc(C(=O)O)c(C(=O)O)c21`, the Ki in assay [1] was determined as 0.16 µM; at Glutamate NMDA receptor, 68 µM. The Ratio Ki in the assay filed under Rattus norvegicus [3] stood at 425. The molecule further came in with an IC50 in assay [6] of 4.6 µM.

In turn, `O=C(O)c1nn2c(=O)[nH]c3cc(Cl)c(-n4cnnc4)cc3c2c1C(=O)O` displayed a Ki in [1] of 0.1 µM. In addition, in assay [2], the Activity amounted to 43%. Besides, in the assay listed under Rattus norvegicus [3], the Ratio Ki is > 1000. Besides, the IC50 in assay [6] was 2.4 µM; in [7], 2.5 µM; in assay [8] it was > 10 µM.

Take `O=C(Nc1cc2c(cc1Cl)[nH]c(=O)n1nc(C(=O)O)c(C(=O)O)c21)NC(Cc1ccccc1)C(=O)O` (racemic): the inhibition constant (Ki) in assay [1] was determined as 0.47 µM; on Glutamate NMDA receptor, 61 µM. Besides, in the assay filed under Rattus norvegicus [3], the Ratio Ki was 129. Moreover, in [6], the IC50 was found to be 40 µM.

Regarding `O=C(Nc1cccc(C(=O)O)c1)Nc1cc2c(cc1Cl)[nH]c(=O)n1nc(C(=O)O)c(C(=O)O)c21`, the inhibition constant Ki is 0.42 µM in assay [1] and 35 µM on Glutamate NMDA receptor. Also, in the assay filed under Rattus norvegicus [3], the Ratio Ki was found to be 83. The molecule further had an IC50 in assay [6] of 3 µM.

`O=C(O)c1nn2c(=O)[nH]c3cc(Cl)c([N+](=O)[O-])cc3c2c1Cl`: the Ki turned out to be 1.3 µM in assay [1] and 2.5 µM on Glutamate NMDA receptor. The Ratio Ki in the assay listed under Rattus norvegicus [3] came to 1.9. In addition, the IC50 in [6] was determined as 94 µM.

For `CCOC(=O)CCNC(=O)Nc1cc2c(cc1Cl)[nH]c(=O)n1nc(C(=O)OCC)c(C(=O)OCC)c21`, the Ki in assay [1] turned out to be 3.8 µM. The Activity (in assay [2]; in the assay listed under Rattus norvegicus [4]) was 32% in each case. The Ratio Ki in the assay filed under Rattus norvegicus [3] is > 26.

In assay [1], `CCOC(=O)c1nn2c(=O)[nH]c3cc(Cl)c(-n4cnnc4)cc3c2c1C(=O)OCC` showed a Ki of 1.2 µM. In [2], this molecule yielded an Activity of 18%. For the same molecule, in the assay listed under Rattus norvegicus [3], the Ratio Ki is > 80. Besides, the IC50 in assay [6] was 82 µM; in [7], 5.8 µM; in assay [8], > 20 µM.

The molecule `CCNC(=O)Nc1cc2c(cc1Cl)[nH]c(=O)n1nc(C(=O)OCC)c(C(=O)OCC)c21` returned an inhibitory constant (Ki) in assay [1] of 27 µM. The Activity in assay [2] is 44%; in the assay listed under Rattus norvegicus [4], 13%. Besides, the Ratio Ki in the assay filed under Rattus norvegicus [3] was > 3.7.

For `CCOC(=O)c1nn2c(=O)[nH]c3cc(Cl)c([N+](=O)[O-])cc3c2c1C(=O)OCC`, the Activity in the assay filed under Rattus norvegicus [5] was 40%; in assay [2], 30%; in the assay filed under Rattus norvegicus [4], 0%.

As for `CCOC(=O)c1ccc(NC(=O)Nc2cc3c(cc2Cl)[nH]c(=O)n2nc(C(=O)OCC)c(C(=O)OCC)c32)cc1`, the Activity is 5% in the assay listed under Rattus norvegicus [5], 5% in [2] and 15% in the assay filed under Rattus norvegicus [4].

On to `CCOC(=O)c1cccc(NC(=O)Nc2cc3c(cc2Cl)[nH]c(=O)n2nc(C(=O)OCC)c(C(=O)OCC)c32)c1`, for which the Activity in the assay filed under Rattus norvegicus [5] amounted to 18%; in [2], 0%; in the assay listed under Rattus norvegicus [4] it was 0%.

In the case of `O=C(O)c1cc2c3cc(-n4cnnc4)c(Cl)cc3[nH]c(=O)n2n1`, the Ki in [1] was 0.14 µM.

For `O=C(NCCc1ccccc1)Nc1cc2c(cc1Cl)[nH]c(=O)n1nc(C(=O)O)c(C(=O)O)c21`, the Ki in [1] was found to be 0.48 µM; on Glutamate NMDA receptor it was 31 µM. The same molecule gave an IC50 in assay [6] of 17 µM.

Consider `O=C(O)c1nn2c(=O)[nH]c3cc(Cl)c([N+](=O)[O-])cc3c2c1[N+](=O)[O-]`, for which the values for the Ki (in assay [1]; on Glutamate NMDA receptor) were 11.9 µM and 20.5 µM, respectively. For the same molecule, the Ratio Ki in the assay listed under Rattus norvegicus [3] worked out at 1.7. The same molecule gave an Activity in the assay listed under Rattus norvegicus [4] of 29%.

For `CCOC(=O)c1nn2c(=O)[nH]c3cc(Cl)c(-n4cccc4)cc3c2c1C(=O)OCC`, in assay [1], the inhibitory constant (Ki) was 48 µM. Moreover, the values for the Activity (in assay [2]; in the assay filed under Rattus norvegicus [4]) were 13% and 12%, respectively. In the assay listed under Rattus norvegicus [3], the Ratio Ki is > 2.

With `CCNC(=O)Nc1cc2c(cc1Cl)[nH]c(=O)n1nc(C(=O)O)c(C(=O)O)c21`, the figures for the Ki (in assay [1]; at Glutamate NMDA receptor) were 0.56 µM and 41 µM, respectively. In addition, the Ratio Ki in the assay filed under Rattus norvegicus [3] was found to be 73.3. Also, the IC50 in [6] was 9.8 µM.

As for `O=C(O)CNC(=O)Nc1cc2c(cc1Cl)[nH]c(=O)n1nc(C(=O)O)c(C(=O)O)c21`, the Ki came to 0.48 µM in assay [1] and 54 µM at Glutamate NMDA receptor. For the same molecule, the Ratio Ki in the assay filed under Rattus norvegicus [3] came to 112. For the same molecule, the IC50 in assay [6] came to 4.4 µM.

As for `CCOC(=O)c1nn2c(=O)[nH]c3cc(Cl)c([N+](=O)[O-])cc3c2c1Cl`, in assay [1], the Ki is 63 µM. Further, the Activity is 45% in assay [2] and 25% in the assay filed under Rattus norvegicus [4]. Also, in the assay filed under Rattus norvegicus [3], the Ratio Ki is > 1.5.

With `CCOC(=O)CNC(=O)Nc1cc2c(cc1Cl)[nH]c(=O)n1nc(C(=O)OCC)c(C(=O)OCC)c21`, the Ki in assay [1] worked out at 8.9 µM. The Activity in assay [2] is 43%; in the assay filed under Rattus norvegicus [4], 19%. Moreover, the Ratio Ki in the assay listed under Rattus norvegicus [3] was > 11.

`CCOC(=O)c1nn2c(=O)[nH]c3cc(Cl)c(NC(=O)NC(Cc4ccccc4)C(=O)OC)cc3c2c1C(=O)OCC` (racemic): the figures for the Activity (in the assay listed under Rattus norvegicus [5]; in [2]; in the assay filed under Rattus norvegicus [4]) were 46%, 16% and 16%, respectively.

Take `CCOC(=O)c1nn2c(=O)[nH]c3cc(Cl)c(NC(=O)c4ccccc4C(=O)O)cc3c2c1C(=O)OCC`: the figures for the Ki (in [1]; on Glutamate NMDA receptor) were 2.8 µM and 36 µM, respectively. Moreover, the Ratio Ki in the assay filed under Rattus norvegicus [3] amounted to 12.8. In [6], this molecule showed an IC50 of 0.11 µM.

As to `O=C(O)c1ccccc1C(=O)Nc1cc2c(cc1Cl)[nH]c(=O)n1nc(C(=O)O)c(C(=O)O)c21`, the Ki came to 1.3 µM in assay [1] and 27 µM on Glutamate NMDA receptor. In addition, the Ratio Ki in the assay listed under Rattus norvegicus [3] is 20.7. Further, the IC50 in assay [6] came out at 0.52 µM.

Regarding `O=C(Nc1ccc(C(=O)O)cc1)Nc1cc2c(cc1Cl)[nH]c(=O)n1nc(C(=O)O)c(C(=O)O)c21`, the inhibition constant Ki in assay [1] turned out to be 1.1 µM; on Glutamate NMDA receptor it was 49 µM. In addition, the Ratio Ki in the assay filed under Rattus norvegicus [3] turned out to be 44. The molecule also yielded an IC50 in assay [6] of 13 µM.

Consider `O=C(O)c1nn2c(=O)[nH]c3cc(Cl)c(-n4cccc4)cc3c2c1C(=O)O`, for which the Ki turned out to be 0.13 µM in assay [1] and 20 µM at Glutamate NMDA receptor. The Ratio Ki in the assay listed under Rattus norvegicus [3] was 154. In assay [6], this molecule yielded a concentration for half-maximal inhibition (IC50) of 4.5 µM.

As for `O=C(NCc1ccccc1)Nc1cc2c(cc1Cl)[nH]c(=O)n1nc(C(=O)O)c(C(=O)O)c21`, the Ki stood at 0.37 µM in assay [1] and 16.3 µM on Glutamate NMDA receptor. Also, the Ratio Ki in the assay listed under Rattus norvegicus [3] amounted to 44. In [6], this molecule yielded an IC50 of 11 µM.

For the molecule `CCOC(=O)c1nn2c(=O)[nH]c3cc(Cl)c(NC(=O)NCCc4ccccc4)cc3c2c1C(=O)OCC`, the Activity in the assay listed under Rattus norvegicus [5] worked out at 44%; in the assay filed under Rattus norvegicus [4], 9%. Affinity at Glutamate NMDA receptor was put at a Ki of 49 µM. Moreover, in the assay filed under Rattus norvegicus [3], the Ratio Ki was 0.49.

(Values after ChEMBL document CHEMBL1144017, “Novel AMPA and kainate receptor antagonists containing the pyrazolo[1,5-c]quinazoline ring system: Synthesis and structure-activity relationships” (Bioorg Med Chem, 2008).)
